Measured values from patent US20170368034A1, “THIOTRIAZOLE COMPOUND AND ITS USE IN PARASITIC PROTOZOAL INFECTIONS” (GlaxoSmithKline Intellectual Property Development Limited, priority 2014, published 2017).
Values after ≈ are worked out from the molar mass of the structure shown. Where two headings read alike, the source gives them in different places. Values belong to the molecule of their own block, whether it stands above or below them.

Columns and labels:
P. falciparum = P. falciparum in vivo efficacy assay (P. falciparum mouse model); set-up: species or system Plasmodium falciparum; conditions: for AUCED90: area under the concentration-time curve at ED90, P. falciparum mouse model; for ED90: dose that eradicates 90 per cent of parasitemia, NOD-scid IL2R_null mice engrafted with human erythrocytes
Protocol: P. Falciparum In Vivo Efficacy Assay.
Antimalarial in vivo efficacy was determined using the P. falciparum mouse model following the procedure described in: Jimenez-Diaz, M. B., Mulet, T., Viera, S., Gómez, V., Garuti, H., Ibañez, J., Alvarez-Doval, A., Shlutz, D. L., Martinez, A., Improved Murine Model Of Malaria Using Plasmodium falciparum (Competent Strains and Non-Myelodepleted NOD-scid IL2R_null
Mice Engrafted with Human Erythrocytes) Antimicrob. Agents Chemother 2009, 53 (10), 4533-4536

[1] = Equilibrium solubility assessment in biorelevant media; format: physicochemical; conditions: thermodynamic from solid, room temperature
Protocol: Compound's equilibrium solubility was measured at 4 h room temperature in four biologically relevant fluids: Fasted State-(Simulated Intestinal Fluid (FaSSIF), Fed State Simulated IntestinalFluid (FeSSIF), Simulated Gastric Fluid (SGF) and Phosphate Buffered Saline (PBS).
Organic solvents of HPLC grade were used. Ultra pure water (Milli-Q grade) was used. Buffers were prepared with ultra pure water and filtered using 0.45 μ nylon filters.
Determination of equilibrium solubility (assuming chemical stability in the desired solvent is not a problem).
a) 1 mg of solid compound was weighted in one 4 mL glass vial and 1 mL of the corresponding medium freshly prepared (SGF, FaSSIF, FeSSIF or PBS) was added. All these samples were prepared by duplicate.
b) The samples were stirred (roller mixer) for 4 hr at room temperature. If required, additional solid compound (0.1 mg) was added to maintain excess of it (saturated solutions).
c) After 4 hours, the samples were centrifuged (10000 rpm, 10 min.) and the supernatants were transfer to an HPLC vial and analysed by LC-MS (previous dilution with mobile phase when needed).
d) The pH of the final solution in each sample was measured with a pH-meter (WTW pH330i and a pH-electrode Sentix 41).
All supernatants were analysed by LC-MS. Quantification of those samples was carried out against calibration curves obtained from 1 mg/mL DMSO (Aldrich cat. ref.: 27685-5) stock solutions, by dilution with the mobile phase used in the chromatography. Depending on the solubility range, U.V. (1 μg/mL to 100 μg/mL) or MS (1 μg/mL to 1 ng/mL) detector were used in the quantification.
The analysis of all LC-MS data was performed with MassLynx 3.4 software and Analyst 1.4.2. Statistical and graphic analysis of data was performed using Microsoft Excel. The concentration (μM) and solubility (μg/ml) for each compound was calculated using the peak areas from the sample and those from the calibration curve.

[2] = test system: P. falciparum infected erythrocytes; experiment: P. falciparum growth inhibition assay ([3H]hypoxanthine incorporation); format: cell-based; conditions: Plasmodium falciparum, Erythrocyte, 0.5% parasitemia (ring stage), 2% hematocrit, 48 h total incubation, read-out: PflC50
Protocol: P. falciparum Growth Inhibition Assay. The sensitivity of P. falciparum infected erythrocytes to the compound is determined in triplicate using the [^3H]hypoxanthine incorporation method with an inoculum of 0.5% parasitemia (ring stage) and 2% hematocrit. The parasites were grown in RPMI 1640, 25 mM HEPES and supplemented with […]. Plates are incubated at 37° C., 5% CO2, 5% O2, 90% N2. After 24 h of incubation, [3H]hypoxanthine is added and plates are incubated for another 24 h. After that period, plates are harvested on a glass fiber filter using a TOMTEC Cell harvester 96. Filters are dried and melt on scintillator sheets and the bound radioactivity is quantified by use of a Wallac Microbeta Trilux (Model 1450 LS-Perkin Elmer). IC50s are determined using Grafit 5 program (Grafit program; Erithacus Software, Horley, Surrey, United Kingdom).

[3] = p698 and Table 2 p699; cited from earlier work
[4] = FaSSIF (fasted state simulated intestinal fluid), fassif, Fasted state simulated intestinal fluid, read-out: FaSSIF solubility
[5] = FeSSIF (fed state simulated intestinal fluid), fessif, Fed state simulated intestinal fluid, read-out: FeSSIF solubility
[6] = PBS (phosphate buffered saline), aqueous buffer, Phosphate buffered saline, read-out: PBS solubility
[7] = SGF (simulated gastric fluid), Simulated gastric fluid, read-out: SGF solubility

Compound: C[C@@H](Sc1nc(-c2c(Cl)cncc2Cl)n[nH]1)C(=O)c1c[nH]c2ccccc12 [drawing 24]
AUCED90 (P. falciparum): 0.17 μg.h.ml-1day-1 | ED90 (P. falciparum): 2.2 mg/kg

Compound: Cc1[nH]c2ccccc2c1C(=O)C(C)Sc1nnc(-c2ccccc2Br)[nH]1 (stereo not drawn) [drawing 22]
AUCED90 (P. falciparum): < 0.05 μg.h.ml-1day-1 | ED90 (P. falciparum): 7.31 mg/kg

Compound: C[C@@H](Sc1nc(-c2c(Cl)cncc2Cl)n[nH]1)C(=O)c1c[nH]c2ccccc12 [drawing 21]
IC50 [2]: 19 to 53 nM

Compound: CC(Sc1nc(-c2c(Cl)cncc2Cl)n[nH]1)C(=O)c1c[nH]c2ccccc12 (stereo not drawn) [drawing 20]
IC50 [2]: 52 nM

Compound: O=C(CSc1nc(-c2ccncc2)n[nH]1)c1c[nH]c2ccccc12 [drawing 18]
IC50 [2]: > 5000 nM

Compound: Cc1[nH]c2ccccc2c1C(=O)C(C)Sc1nnc(-c2ccccc2Br)[nH]1 (stereo not drawn) [drawing 19]
IC50 [2]: 44 to 60 nM

Compound: O=C(CSc1nc(-c2ccncc2)n[nH]1)c1c[nH]c2ccccc12 [Compound 32]
activity in the assays of Shah et al. [3]: inactive

Second part, the molecule after the results:

solubility at 4 h [1, 4]: 168 µg/mL (≈ 402 µM)
Compound: CC(Sc1nc(-c2c(Cl)cncc2Cl)n[nH]1)C(=O)c1c[nH]c2ccccc12 (stereo not drawn) [drawing 26]

solubility at 4 h [1, 4]: 37 µg/mL (≈ 83.8 µM) | solubility at 4 h [1, 5]: 181 µg/mL (≈ 410 µM) | solubility at 4 h [1, 6]: < 0.1 µg/mL | solubility at 4 h [1, 7]: < 0.1 µg/mL
Compound: Cc1[nH]c2ccccc2c1C(=O)C(C)Sc1nnc(-c2ccccc2Br)[nH]1 (stereo not drawn) [drawing 25]

solubility at 4 h [1, 4]: 216 µg/mL (≈ 516 µM) | solubility at 4 h [1, 5]: 578 to 675 µg/mL (≈ 1380 to 1610 µM) | solubility at 4 h [1, 6]: 169 to 289 µg/mL (≈ 404 to 691 µM) | solubility at 4 h [1, 7]: 15 to 76 µg/mL (≈ 35.9 to 182 µM)
Compound: C[C@@H](Sc1nc(-c2c(Cl)cncc2Cl)n[nH]1)C(=O)c1c[nH]c2ccccc12 [drawing 27]
